Experimental data as given in patent US7763636B2, “N-(arylalkyl)-1H-pyrrolopyridine-2-carboxamide derivatives, preparation and therapeutic use thereof” (Sanofi-Aventis, priority 2005, dated 2010).

Tests used:
[1] = biological target: T1, TRPV1 receptors (Mus musculus, UniProt Q704Y3); assay: Test of mouse corneal irritation (capsaicin ocular instillation); format: in vivo; conditions: 1 mg/kg (po), pretreatment time t = 1 h, n = 10, 2 μl of 160 μM capsaicin in the eye, rubbing counted for 2 min
T1 construct: from tissue; host or cells: cornea of the living mouse (C fibres)
Experimental: Test of Mouse Corneal Irritation
The irritant nature of capsaicin is readily assessed on the cornea since this organ is one of the organs most densely innervated with C fibres. In this context, from preliminary experiments, the application of a very small amount of capsaicin (2 μl at a concentration of 160 μM) to the surface of the cornea of an animal leads to a certain number of stereotypical behavioral traits associated with irritation, which are easy to record. Among these, the following are noted: blinking of the eye, rubbing of the instilled eye with the ipsilateral front paw, rubbing of the face with both front paws, scratching of the ipsilateral face with the hind paw. […] Its aspect is moreover also normal. […]
In practice, the test product is administered orally and, with a delay (pretreatment time: t) that depends on the pharmacokinetic data, the animal receives an ocular instillation of 2 μl of a 160 μM capsaicin solution prepared as indicated above. During a 2-minute observation following the instillation, the number of times the instilled eye is rubbed with the ipsilateral front paw is recorded.
For a given animal, the percentage of protection is calculated as follows: P=100−((number of scratching actions observed/mean number of scratching actions for the group treated with the solvent)×100) […]

T1 sequence (Q704Y3 whole entry): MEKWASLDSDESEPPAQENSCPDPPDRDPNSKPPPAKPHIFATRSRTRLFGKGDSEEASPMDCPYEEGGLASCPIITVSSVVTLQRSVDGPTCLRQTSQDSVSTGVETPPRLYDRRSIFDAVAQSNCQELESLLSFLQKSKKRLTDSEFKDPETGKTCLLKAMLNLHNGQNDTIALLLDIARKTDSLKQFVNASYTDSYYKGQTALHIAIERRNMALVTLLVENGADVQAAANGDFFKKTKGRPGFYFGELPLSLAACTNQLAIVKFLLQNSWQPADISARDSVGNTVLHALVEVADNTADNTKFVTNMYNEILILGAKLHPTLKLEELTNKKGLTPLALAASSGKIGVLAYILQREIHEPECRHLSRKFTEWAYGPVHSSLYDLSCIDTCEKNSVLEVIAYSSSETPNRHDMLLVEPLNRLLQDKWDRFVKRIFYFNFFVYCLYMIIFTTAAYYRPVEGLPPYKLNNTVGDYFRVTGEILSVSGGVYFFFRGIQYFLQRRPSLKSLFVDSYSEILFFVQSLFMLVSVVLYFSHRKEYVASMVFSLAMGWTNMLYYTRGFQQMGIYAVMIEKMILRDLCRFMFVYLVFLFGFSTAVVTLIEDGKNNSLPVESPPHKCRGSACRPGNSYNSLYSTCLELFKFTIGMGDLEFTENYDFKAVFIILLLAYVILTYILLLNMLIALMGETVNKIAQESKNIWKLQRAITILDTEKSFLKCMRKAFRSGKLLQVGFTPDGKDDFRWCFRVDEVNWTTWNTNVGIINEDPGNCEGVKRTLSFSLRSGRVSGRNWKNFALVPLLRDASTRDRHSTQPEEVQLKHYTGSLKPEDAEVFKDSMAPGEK

Row | melting point [°C] | SMILES | % P (percentage of protection) [1]
1 | 263 to 265 | Cc1nc2cc(NC(=O)c3cc4ncccc4n3Cc3cccc(F)c3)ccc2s1 | 
2 | 263 to 264 | Cc1nc2cc(NC(=O)c3cc4cnccc4n3Cc3cccc(F)c3)ccc2n1C | 
3 | 277 to 281 | Cn1cnc2cc(NC(=O)c3cc4ncccc4n3Cc3cccc(F)c3)ccc21 | 
4 | 245 to 247 | Cc1nc2cc(NC(=O)c3cc4ncccc4n3Cc3cccc(F)c3)ccc2n1C | 

The remaining lines, values behind:

Row | SMILES | melting point [°C] | % P (percentage of protection) [1]
5 | Cn1ccc2cc(NC(=O)c3cc4cc(C(F)(F)F)cnc4n3Cc3cccc(F)c3)ccc21 | 229 to 231 | 
6 | Cn1cnc2cc(NC(=O)c3cc4cc(F)cnc4n3Cc3cccc(F)c3)ccc21 [Compound 15, N-(1-methyl-1H-benzimidazol-5-yl)-5-fluoro-1-[(3-fluorophenyl)methyl]-1H-pyrrolo[2,3-b]pyridine-2-carboxamide] |  | 50% - (1 h)
7 | Cc1nc2cc(NC(=O)c3cc4cccnc4n3-c3ccccc3)ccc2n1C | 286 to 288 | 
8 | Cc1nc2cc(NC(=O)c3cc4cc(Cl)ncc4n3Cc3cccc(F)c3)ccc2n1C | 240 to 242 | 
9 | Cn1ccc2cc(NC(=O)c3cc4ccncc4n3Cc3cccc(F)c3)ccc21 | 213 to 214.5 | 
10 | Cc1nc2cc(NC(=O)c3cc4cc(F)cnc4n3Cc3cccc(F)c3)ccc2n1C | 226 to 228 | 
